Laboratory results reported in patent US20250250629A1, “NUCLEOTIDE CYCLIC CLEAVABLE MOIETIES AND USES THEREOF” (Singular Genomics Systems, Inc., priority 2022, published 2025).

Experiment: Storage stability of reversibly terminated nucleotides (percentage of deblocked nucleotides, in-house assay)
Type: physicochemical
Details: for percentage of deblocked nucleotides (3′-OH, loss of reversible terminator) over time: stored at 20° C. over 21 days (vs. 4° C.)
Procedure: FIGS. 1A-1B depict storage stability studies of nucleotides stored at both 4° C. and 20° C. over a period of 21 days. The stability of the reversibly terminated nucleotide can be measured by the % of nucleotides that lose the reversible terminator moiety (e.g., via spontaneous fragmentation or reduction to yield a 3′-OH). […] (black) and 20° C. (light). […] (black) and 20° C. (light).
The stability of a reversibly terminated nucleotide can be measured by determining the loss of the reversible terminator over time. FIGS. 1A-1B depict the storage stability of nucleotides having a linear disulfide RT and cyclic disulfide RT stored at both 4° C. and 20° C. over a period of 21 days. The linear disulfide RT tested has the structure:
A buffer containing 200 nM of each nucleotide was stored at 4° C. and 20° C. over a period of 21 days and the percentage of deblocked nucleotides (i.e., those having loss of 3′-OH reversible terminator) was determined using an in-house assay. The stability of the reversibly terminated nucleotide can be measured by the % of nucleotides that lose the reversible terminator moiety (e.g., via spontaneous fragmentation or reduction to yield a 3′-OH). […] (black) and 20° C. (light). […] (black) and 20° C. (light). As observed in FIG. 1A, the average percentage of reversible terminator loss is about 0.13%+/−0.05% when stored at 4° C., and is considered relatively stable when stored under these conditions. […] Subsequent storage stability studies indicate the nucleotides are stable, wherein the average percentage of reversible terminator loss is less than about 0.15%, beyond 120 days at both 20° C. and 4° C.

[1] = buffer containing 200 nM nucleotide

Compound | average percentage of reversible terminator loss (buffer containing 200 nM nucleotide, stored at 4° C. over 21 days) | percentage of deblocked nucleotides (3′-OH, loss of reversible terminator) over time [1] | average percentage of reversible terminator loss (subsequent storage stability studies, beyond 120 days at 4° C.) | average percentage of reversible terminator loss (subsequent storage stability studies, beyond 120 days at 20° C.)
CSSC(C)OC1CC(n2cc(C)c(=O)[nH]c2=O)OC1COP(=O)(O)OP(=O)(O)OP(=O)(O)O (centres unmarked) [linear disulfide RT, reference compound] | about 0.13%+/−0.05 | grows over time |  | 
Cc1cn(C2CC(OC3CCCSS3)C(COP(=O)(O)OP(=O)(O)OP(=O)(O)O)O2)c(=O)[nH]c1=O (centres unmarked) [cyclic disulfide RT] |  | less prone to spontaneously losing the 3′ reversible terminator | less than 0.15% | less than 0.15%
